Source: US7635779B2, “Oxy substituted flavones as antihyperglycemic and antidyslipidemic agents” (Council of Scientific & Industrial Research, priority 2004, dated 2009)
“And” between values parts separate entries of the source, which are not always exact repeats. Identical values can stand only once. Like-named read-outs stand apart in the source and are kept apart here.

Legend:
[1] = system: db/db mice; test: Antihyperglycemic activity in db/db mice; type: in vivo, mouse; settings: for % Fall in blood glucose levels, 6 days: day 6; for % Fall in blood glucose levels, 10 days: day 10
From the text: The db/db mouse is a well-characterized model of type II diabetes. The background for the db/db mouse is the C57BL/Ks strain. The major deficiency of the C57BL/KsBom-db mouse (db/db) is lack of a functional leptin receptor. This leads to defective leptin signaling and a complete lack of feedback from leptin. […] The db/db mouse develops NIDDM from around week 10. The disease is stable until week 20, where destruction of pancreatic β-cells can be recognized clinically as decreasing levels of plasma insulin and very severe hyperglycemia. The male mice are more diabetic than female and will normally die earlier. The advantage of using male mice for experimental purposes is that the fluctuations in plasma parameters are less than in the females where the estrogen cycles affects the clinical diabetes mellitus. The optimal age of db/db mice used for experiments will be from week 12 to 18 when they have developed NIDDM with diabetic dyslipidemia but still have functional β-cells in the pancreas. C57BL/KsBom-db mice 12-18 weeks, 40-50 g bred in the animal house of CDRI, Lucknow. 10 male mice were used in the experiments. The mice were housed in groups of 5 individuals in a room controlled for temperature (23+2° C.) and 12/12 hours light/dark cycle (lights on at 6.00 am). Body weight was measured daily from day 1 to day 10. All animals had free access to fresh water and to normal chow except on the days of the postprandial protocol day 6 and during the overnight fast before the OGTT on day 10. Blood glucose was checked every morning up till day 5. On day 6 postprandial protocol was employed, in this method blood glucose was checked at −0.30 min and 0 h. Test compounds were given to the treatment group whereas control group received only gum acacia (1.0%); the blood glucose was again checked at 1, 2, 3, 4 and 6 h post test compound treatment. Finally on day 10 an oral glucose tolerance test (OGTT) was performed after an overnight fasting. Blood glucose was measured at −0.30 min and test drugs were fed, blood glucose was again measured at 0.0 min post treatment, at this juncture glucose solution was given at a dose of 3 gm/kg to all the groups including control group; the profile of blood glucose was checked at 30 min, 60 min, 90 min and 120 min post glucose administration. Quantitative glucose tolerance of each animal was calculated by Area Under Curve (AUC) method (Prism Software). Comparing the AUC of experimental and control groups determined the percentage antihyperglycemic activity. Statistical comparison was made by Dunnett's test.

[2] = system: triton WR-1339 induced hyperlipidemic rats; test: Triton model, antidyslipidemic activity; type: in vivo, rat; settings: 100 mg/kg oral, plasma after 18 h; for inhibition in vivo at 100 mg/kg: Rattus norvegicus
Protocol: Male Charles foster rats weighing 200-225 g were divided into control, hyperlipidemic and hyperlipidemic plus drug treated groups containing six animals in each group. Hyperlipidemia was induced by administration of triton WR-1339 (200 mg/kg i.p.). All animals were maintained on a special pellet diet and water ad libitum. Compounds and standard drug were macerated with 0.2% aqueous gum acacia suspension. The suspension was fed orally at the dose of 100 mg/kg simultaneously with triton in drug treated group. The animals of control group received the same amount of gum acacia by similar route of administration. At the end of the experiment, after 18 h, blood was withdrawn from retro orbital plexus and plasma was used for the assay of total cholesterol, phospholipid and triglycerides.
Cholesterol was estimated using the kit provided by Roche Diagnostics. Cholesterol esters are enzymatically hydrolyzed by cholesterol esterase (CE) to cholesterol and free fatty acids. Free cholesterol, including that originally present, is then oxidized by cholesterol oxidase (CO) to cholest-4-en-3-one and hydrogen peroxide. The hydrogen peroxide combines with hydroxy benzoic acid (HBA) and 4-aminoantipyrine (4AAA) in the presence of peroxidase (POD) to form a chromophore (quinoneimine dye), which may be quantitated at 500-505 nm. The intensity of red colour formed is directly proportional to the concentration of total cholesterol in the specimen and measured spectrophotometrically (Searcy, C. L. Diagnostic Biochemistry, 1969, McGraw Hill, New York; Ellefson, R. D.; Caraway, W. T. Fundamentals of clinical chemistry, 1976, Ed Tietz N W, 506-515.)
Triglycerides were estimated using the kit provided by Roche Diagnostics. Lipoprotein lipase hydrolyses triglycerides to yield glycerol and fatty acids. Glycerol kinase converts glycerol to glycerol-3-phosphate, which is oxidized by glycerol phosphate oxidase to dihydroxy acetone phosphate and hydrogen peroxide. In the presence of peroxidase, hydrogen peroxide oxidatively couples with 4-aminoantipyrine and 4-chloro phenol to produce red quinonimine dye. The intensity of red colour formed is directly proportional to the concentration of triglycerides in the specimen and is measured by photometrically (Wahlefeld, A. W.; Bergmeyer, H. U. Ed. Methods of enzymatic analysis, 2nd English edition, New York, N.Y., Academic press inc, 1831-1840.).
Serum (0.2 mL) and perchloric acid (1.0 mL) was digested at 180° C. for 1-1.5 h till the solution became colorless. The liberated inorganic phosphate (Pi) was measured by the method of Fiske and Subbarow (Fiske, C. H.; Subbarow, V. J. Biol. Chem. 1925, 66, 375.). 1 mL of 2.5% ammonium molybdate (prepared in 5 N sulphuric acid) and 0.5 mL reducing agent (4-amino naphthol sulphonic acid, 0.2%), sodium metabisulphite (2.4% w/v in distilled water) was added to the above tubes and mixed well. The reaction mixture was […] with 2.5 mL of triple distilled water and kept at 60° C. in water bath for 20 min. For standard, an appropriate amount of potassium dihydrogen phosphate dissolved in triple distilled water containing 2-10 μg phosphorous (Pi) was run simultaneously with the experiment tubes. The optical density of the blue colour was recorded at 620 nm against reagent blank. The values of Pi were converted into phospholipid by multiplying with 25 (a constant calibrated from Pi value of lecithin).

[3] = system: sucrose loaded rat; test: Sucrose loaded rat model (SLM), antihyperglycemic activity; type: in vivo; settings: for inhibition in vivo at 100 mg/kg: Rattus norvegicus, po, 2 h, read-out: % Fall in blood glucose levels, SLM
Protocol: Male albino rats of Charles Foster/Wistar strain of average body weight 160±20 g were selected for this study. The blood glucose level of each animal was checked by glucometer using glucostrips (Boehringer Mannheim) after 16 h starvation. Animals showing blood glucose levels between 3.33 to 4.44 mM (60 to 80 mg/dl) were divided into groups of five to six animals in each. Animals of experimental group were administered suspension of the desired synthetic compound orally (made in 1.0% gum acacia) at a dose of 100-mg/kg-body weight. Animals of control group were given an equal amount of 1.0% gum acacia. A sucrose load (10.0 g/kg) was given to each animal orally exactly after 30 min post administration of the test sample/vehicle. Blood glucose profile of each rat was again determined at 30, 60, 90 and 120 min post administration of sucrose by glucometer. Food but not water was withheld from the cages during the course of experimentation. Quantitative glucose tolerance of each animal was calculated by Area Under Curve (AUC) method (Prism Software). Comparing the AUC of experimental and control groups determined the percentage antihyperglycemic activity. Statistical comparison was made by Dunnett's test.

[4] = phospholipid, read-out: % Fall in lipid levels (Triton model) PL
[5] = total cholesterol, read-out: % Fall in lipid levels (Triton model) TC
[6] = triglycerides, read-out: % Fall in lipid levels (Triton model) TG

SMILES: CC(C)NCC(O)COc1ccc2c(=O)cc(-c3cc(O)cc(O)c3)oc2c1 (stereo not shown) [Compound 49, 3′,5′-Dihydroxy-7-(2-hydroxy-3-iso-propylamino-propoxy)-flavone]
- % Fall in blood glucose levels, 6 days [1]: 9.38%
- % Fall in blood glucose levels, 10 days [1]: 20.8% and 20.5%
- inhibition in vivo at 100 mg/kg [2, 4]: 28%
- inhibition in vivo at 100 mg/kg [2, 5]: 32%
- inhibition in vivo at 100 mg/kg [2, 6]: 32%
- inhibition in vivo at 100 mg/kg [3]: 29%

SMILES: COc1cc(-c2cc(=O)c3ccc(OCCCOc4ccc(C=C5SC(=O)NC5=O)cc4)cc3o2)cc(OC)c1OC [Compound 65, 7-{3-[4-(thiazolidin-2,4-dione-5-ylidinemethyl)-phenoxy]-propoxy}-3′,4′,5′-trimethoxy-flavone]
- % Fall in blood glucose levels, 6 days [1]: 19.1%
- % Fall in blood glucose levels, 10 days [1]: 21.4%
- % Fall in lipid levels (Triton model) PL ([2]; phospholipid): 6%
- % Fall in lipid levels (Triton model) TC ([2]; total cholesterol): 20%
- % Fall in lipid levels (Triton model) TG ([2]; triglycerides): 3%
- % Fall in blood glucose levels, SLM ([3]; 100 mg/kg oral, AUC vs control): 29.30%
- Antihyperglycemic (glucose lowering) activity in words ([3]; SLM as well as STZ model): significant and consistent glucose lowering activity

SMILES: CC(C)(C)NCC(O)COc1ccc2c(=O)cc(-c3cc(OCc4ccccc4)cc(OCc4ccccc4)c3)oc2c1 (stereo not shown) [Compound 34, 7-(3-tert-Butylamino-2-hydroxy-propoxy)-3′,5′-dibenzyloxy-flavone]
- % Fall in blood glucose levels, 6 days [1]: 26.4%
- % Fall in blood glucose levels, 10 days [1]: 57.1%
- inhibition in vivo at 100 mg/kg [2, 4]: 18%
- inhibition in vivo at 100 mg/kg [2, 5]: 21%
- inhibition in vivo at 100 mg/kg [2, 6]: 9%
- inhibition in vivo at 100 mg/kg [3]: 29.4%
